The series is described as follows: Randomized crossover pharmacokinetics study of two Sytrinol formulations, single oral dose, serum tangeretin and nobiletin by LC/MS/MS. Details: species or system healthy human subjects. To be noted: human, in vivo. As to the method:
The following experiments were undertaken to determine whether citrus polymethoxylated flavones (PMFs) can be detected and quantitated in serum obtained from healthy adults after a single-dose administration of Sytrinol™ capsules (containing 1053 mg of total PMFs) and to compare oral bioavailabilities of two Sytrinol™ formulations in healthy human subjects. This study was conducted as a randomized crossover trial in ten healthy adults, five men and five women, age 23±3 years. […]
Peripheral blood was taken by venipuncture at time 0 (baseline) and times 0.25, 0.5, 1, 2, 4, 6, 8, 24 and 48 hours after ingestion of Sytrinol™ capsules. […] Tangeretin and nobiletin were detected in serum samples and quantitated by LC/MS/MS.
The study was designed to determine whether PMFs can be detected and quantitated in serum obtained from healthy adults after a single dose administration of Sytrinol™ capsules (containing 1053 mg of total PMFs) and to compare oral bioavailabilities of two Sytrinol™ formulations in healthy human subjects. […]
A method of serum extraction and LC/MS/MS analysis of PMF was developed. A Varian 1200 L LC/MS/MS system equipped with ESI and APCI sources was used to identify and quantify tangeretin and nobiletin. […]

SMILES strings stand for the structures.

In the case of `COc1ccc(-c2cc(=O)c3c(OC)c(OC)c(OC)c(OC)c3o2)cc1OC` [nobiletin], the “AUC0-48h of nobiletin compared with tangeretin” value is “significantly higher”.

(Values after patent US7887852B2, “Soft gel capsules containing polymethoxylated flavones and palm oil tocotrienols” (Soft Gel Technologies, Inc., priority 2005, dated 2011).)
